These results are taken from patent US20100227869A1, “ENANTIOPURE QUINUCLIDINYLOXY PYRIDAZINES AND THEIR USE AS NICOTINIC ACETYLCHOLINE RECEPTOR LIGANDS” (priority 2006, published 2010).

For orientation: melting point means the temperature of the solid-liquid transition.

`C(#Cc1ccc(O[C@H]2CN3CCC2CC3)nn1)c1ccccc1.O=C(O)/C=C/C(=O)O`: the melting point is 151.3 to 157.3 °C. Under `C(#Cc1ccc(O[C@@H]2CN3CCC2CC3)nn1)c1ccccc1.O=C(O)/C=C/C(=O)O` stands 154.5 to 159.4 °C.
